# From PubChem BioAssay AID1259407 (Chemical Carcinogenesis Research Information System (CCRIS), 2018)
# Activity calls are given as the source filed them. How the calls were made is not given here.
# Test system: CCRIS mutagenicity, Ames/micronucleus/aberration tests
# Assay: CCRIS mutagenicity studies
# Conditions: Test System: AMES SALMONELLA TYPHIMURIUM
# [1] = Strain/Indicator: TA98, Metabolic Activation: NONE, Method: PREINCUBATION
# [2] = Strain/Indicator: TA100, Metabolic Activation: NONE, Method: PREINCUBATION
# [3] = Strain/Indicator: TA1535, Metabolic Activation: NONE, Method: PREINCUBATION
# [4] = Strain/Indicator: TA1537, Metabolic Activation: NONE, Method: PREINCUBATION
smiles,measurement,setting,value
NS(=O)(=O)c1cc2c(cc1Cl)NC=NS2(=O)=O,mutagenic call,"Strain/Indicator: TA97, Metabolic Activation: HAMSTER, LIVER, S-9, AROCLOR 1254 (10 OR 30%), Method: PREINCUBATION",inactive; negative
same,mutagenic call,"Strain/Indicator: TA97, Metabolic Activation: NONE, Method: PREINCUBATION",inactive; negative
same,mutagenic call,"Strain/Indicator: TA97, Metabolic Activation: RAT, LIVER, S-9, AROCLOR 1254 (10 OR 30%), Method: PREINCUBATION",inactive; negative
same,mutagenic call,"Strain/Indicator: TA98, Metabolic Activation: HAMSTER, LIVER, S-9, AROCLOR 1254 (10 OR 30%), Method: PREINCUBATION",inactive; negative
same,mutagenic call,[1],inactive; negative
same,mutagenic call,"Strain/Indicator: TA98, Metabolic Activation: RAT, LIVER, S-9, AROCLOR 1254 (10 OR 30%), Method: PREINCUBATION",inactive; negative
same,mutagenic call,"Strain/Indicator: TA100, Metabolic Activation: HAMSTER, LIVER, S-9, AROCLOR 1254 (10 OR 30%), Method: PREINCUBATION",inactive; negative
same,mutagenic call,[2],inactive; negative
same,mutagenic call,"Strain/Indicator: TA100, Metabolic Activation: RAT, LIVER, S-9, AROCLOR 1254 (10 OR 30%), Method: PREINCUBATION",inactive; negative
same,mutagenic call,"Strain/Indicator: TA1535, Metabolic Activation: HAMSTER, LIVER, S-9, AROCLOR 1254 (10 OR 30%), Method: PREINCUBATION",inactive; negative
same,mutagenic call,[3],inactive; negative
same,mutagenic call,"Strain/Indicator: TA1535, Metabolic Activation: RAT, LIVER, S-9, AROCLOR 1254 (10 OR 30%), Method: PREINCUBATION",inactive; negative
same,mutagenic call,"Strain/Indicator: TA1537, Metabolic Activation: HAMSTER, LIVER, S-9, AROCLOR 1254 (30%), Method: PREINCUBATION",inactive; negative
same,mutagenic call,[4],inactive; negative
same,mutagenic call,"Strain/Indicator: TA1537, Metabolic Activation: RAT, LIVER, S-9, AROCLOR 1254 (30%), Method: PREINCUBATION",inactive; negative
OCC(CBr)(CBr)CBr,mutagenic call,"Strain/Indicator: TA98, Metabolic Activation: HAMSTER, LIVER, S-9, AROCLOR 1254 (10%), Method: PREINCUBATION",inactive; negative
same,mutagenic call,[1],inactive; negative
same,mutagenic call,"Strain/Indicator: TA98, Metabolic Activation: RAT, LIVER, S-9, AROCLOR 1254 (10%), Method: PREINCUBATION",inactive; negative
same,mutagenic call,"Strain/Indicator: TA100, Metabolic Activation: HAMSTER, LIVER, S-9, AROCLOR 1254 (10%), Method: PREINCUBATION",inactive; negative
same,mutagenic call,[2],inactive; negative
same,mutagenic call,"Strain/Indicator: TA100, Metabolic Activation: RAT, LIVER, S-9, AROCLOR 1254 (10%), Method: PREINCUBATION",inactive; negative
same,mutagenic call,"Strain/Indicator: TA1535, Metabolic Activation: HAMSTER, LIVER, S-9, AROCLOR 1254 (10%), Method: PREINCUBATION",active; positive
same,mutagenic call,[3],inactive; negative
same,mutagenic call,"Strain/Indicator: TA1535, Metabolic Activation: RAT, LIVER, S-9, AROCLOR 1254 (10%), Method: PREINCUBATION",inactive; negative
same,mutagenic call,"Strain/Indicator: TA1537, Metabolic Activation: HAMSTER, LIVER, S-9, AROCLOR 1254 (10%), Method: PREINCUBATION",inactive; negative
same,mutagenic call,[4],inactive; negative
same,mutagenic call,"Strain/Indicator: TA1537, Metabolic Activation: RAT, LIVER, S-9, AROCLOR 1254 (10%), Method: PREINCUBATION",inactive; negative
C(CC1CO1)C1CO1 (centres undefined),mutagenic call,"Strain/Indicator: TA100, Metabolic Activation: NONE, Method: STANDARD PLATE",active; positive
same,mutagenic call,"Strain/Indicator: TA1535, Metabolic Activation: NONE, Method: STANDARD PLATE",active; positive
